Consider 55 molecules from US4190666A, “Anti-inflammatory 4,5-diarly-2-(substituted-thio)imidazoles and their corresponding sulfoxides and sulfones” (E. I. Du Pont de Nemours and Company, priority 1978, dated 1980).

Test [1] concerns phenylquinone writhing syndrome. Briefly: Phenylquinone writhing test (analgesic activity). It is filed as in vivo, female white mice. The following applies: oral; for ED50: Mus musculus, 1% methylcellulose, Tables VIII and IX, read-out: ED50 (effective analgesic dose for 50% of the mice); for peak time: time of peak action. The method, then:
Phenylquinone Writhing Test A standard procedure for detecting and comparing the analgesic activity of compounds in this series for which there is good correlation with human efficacy is the standard phenylquinone writhing test modified from Siegmund, et al., Proc. Soc. Exp. Biol. Med. 95, 729 (1957). […] Aqueous (0.01% phenyl-p-benzoquinone) phenylquinone was injected intraperitoneally at 24 minutes later using 0.20 ml per mouse. […] The effective analgesic dose for 50% of the mice (ED50) was calculated by the moving average method of Thompson, W. R., Bact. Rev. 11, 115-145 (1947); also time of peak action was determined for many of the compounds.

Test [2] deals with established adjuvant-induced arthritis in rats. The experiment in a line: Established adjuvant-induced arthritis in rats (therapeutic, paw volume). The following applies: for ED50: Rattus norvegicus, po, read-out: Adjuvant Arthritis (ED50%). It is filed as in vivo, Charles River Lewis male rats.
[3] abbreviates: established arthritis, 7 daily doses, ED50% decrease from control paw volume, Tables I-III.

On to `COc1ccc(-c2nc(S(=O)(=O)CC(F)(F)F)[nH]c2-c2ccc(OC)cc2)cc1` [Example 6, 4,5-bis(4-Methoxyphenyl)-2-(2,2,2-trifluoroethylsulfonyl)-imidazole], for which the ED50 was 0.58 mg/kg in test [1] and 3.8 mg/kg in test [2] (setting [3]). Also, the peak time in test [1] is recorded as 60 min.

On to `COc1ccc(-c2[nH]c(S(=O)(=O)C(F)(F)C(F)F)nc2-c2ccc(F)cc2)cc1` [Example 133], for which the results for the ED50 in test [1] and in test [2] (setting [3]) were 0.27 mg/kg and 2.2 mg/kg, respectively.

Regarding `COc1ccc(-c2[nH]c(S(=O)(=O)C(F)(F)C(F)F)nc2-c2ccccc2Cl)cc1` [Example 83], in test [1], the ED50 amounted to 0.56 mg/kg and the peak time was 60 min. For the same molecule, in test [2] (setting [3]), the ED50 is 7.2 mg/kg.

In the case of `O=S(=O)(c1nc(-c2ccccc2)c(-c2ccccc2)[nH]1)C(F)(F)C(F)F` [Example 60, 4,5-diphenyl-2-(1,1,2,2-tetrafluoroethylsulfonyl)imidazole], the ED50 is 0.48 mg/kg in test [1] and 0.13 mg/kg in test [2] (setting [3]). This molecule had a peak time in test [1] of 120 min.

As for `COc1ccc(-c2nc([S+]([O-])C(F)(F)C(F)F)[nH]c2-c2ccc(OC)cc2)cc1` (stereo not drawn) [Example 65], the ED50 amounted to 0.8 mg/kg in test [1] and 2.4 mg/kg in test [2] (setting [3]).

For the molecule `CCOc1ccc(-c2[nH]c(S(C)(=O)=O)nc2-c2ccccc2)cc1` [Example 138], the “percent (%) reduction in paw volume measured at the indicated dose” value (from here on “percent (%) reduction in paw volume”) in test [2] (50 mg./kg., oral) amounted to 41%.

For the molecule `COc1ccc(-c2nc(S(=O)(=O)C(F)(F)F)[nH]c2-c2ccc(F)cc2)cc1` [Example 130], the ED50 in test [1] was 0.1 mg/kg; in test [2] (setting [3]), 1.4 mg/kg.

For `O=S(=O)(c1nc(-c2ccccc2)c(-c2ccccc2)[nH]1)C(F)(F)C(F)Cl` (stereo not drawn) [Example 73], the ED50 in test [2] (setting [3]) amounted to 0.25 mg/kg.

In the case of `COc1ccc(-c2nc(SC)[nH]c2-c2ccc(OC)cc2)cc1` [Example 15, 4,5-bis(4-Methoxyphenyl)-2-methylthioimidazole], the ED50 in test [2] (setting [3]) turned out to be 4.4 mg/kg.

As to `Cc1ccc(-c2nc(S(=O)(=O)C(F)(F)C(F)F)[nH]c2-c2ccc(C)cc2)cc1` [Example 81], the ED50 in test [2] (setting [3]) was 0.35 mg/kg.

Take `CCOc1ccc(-c2[nH]c(SC)nc2-c2ccccc2)cc1` [Example 115]: the “percent (%) reduction in paw volume” value in test [2] (50 mg./kg., oral) is recorded as 33%.

`O=S(=O)(c1nc(-c2ccc3c(c2)OCO3)c(-c2ccc3c(c2)OCO3)[nH]1)C(F)(F)C(F)F` [Example 97]: the median effective dose (ED50) in test [2] (setting [3]) is 1 mg/kg.

For the molecule `COc1ccc(-c2nc(S(=O)(=O)CC(C)=O)[nH]c2-c2ccc(OC)cc2)cc1` [Example 100], the ED50 in test [2] (setting [3]) amounted to 18 mg/kg.

Regarding `Cc1ccc(-c2nc(SC(F)(F)C(F)F)[nH]c2-c2ccc(C)cc2)cc1` [Example 43], in test [2] (setting [3]), the median effective dose (ED50) stood at 18 mg/kg.

As to `FC(F)C(F)(F)Sc1nc(-c2ccccc2)c(-c2cccc(Cl)c2)[nH]1` [Example 121], the ED50 in test [2] (setting [3]) stood at 0.6 mg/kg.

For the molecule `C=CC[S+]([O-])c1nc(-c2ccc(OC)cc2)c(-c2ccc(OC)cc2)[nH]1` (stereo not drawn) [Example 54], the ED50 in test [2] (setting [3]) came to 11 mg/kg.

With `CCCSc1nc(-c2ccc(OC)cc2)c(-c2ccc(OC)cc2)[nH]1` [Example 27], the ED50 in test [2] (setting [3]) was determined as 9 mg/kg.

Turning to `FC(F)Sc1nc(-c2ccccc2)c(-c2ccccc2)[nH]1` [Example 30], the ED50 in test [2] (setting [3]) worked out at 21 mg/kg.

In the case of `CS(=O)(=O)c1nc(-c2ccc(Cl)cc2)c(-c2ccc(Cl)cc2)[nH]1` [Example 67], in test [2] (setting [3]), the 50% effective dose (ED50) was 2 mg/kg.

Turning to `COc1ccc(-c2nc(SC(F)(F)F)[nH]c2-c2ccc(F)cc2)cc1` [Example 109], the 50% effective dose (ED50) in test [2] (setting [3]) worked out at 2.7 mg/kg.

In the case of `O=S(=O)(c1nc(-c2ccc(F)cc2)c(-c2ccc(F)cc2)[nH]1)C(F)(F)F` [Example 104, 4,5-bis(p-fluorophenyl)-2-trifluoromethylsulfonylimidazole], the ED50 in test [2] (setting [3]) was 0.015 mg/kg.

For `CCS(=O)(=O)c1nc(-c2ccc(OC)cc2)c(-c2ccc(OC)cc2)[nH]1` [Example 14, 2-Ethylsulfonyl-4,5-bis(4-methoxyphenyl)imidazole], in test [2] (setting [3]), the ED50 stood at 5.2 mg/kg.

In the case of `COc1ccc(-c2nc(S(=O)(=O)CS(C)(=O)=O)[nH]c2-c2ccc(OC)cc2)cc1` [Example 99], in test [2] (setting [3]), the ED50 was determined as 54 mg/kg.

Consider `COc1ccc(-c2nc([S+](C)[O-])[nH]c2-c2ccc(OC)cc2)cc1` (stereo not drawn) [Example 56], for which the 50% effective dose (ED50) in test [2] (setting [3]) was determined as 6.2 mg/kg.

For `[O-][S+](CC(F)(F)F)c1nc(-c2ccccc2)c(-c2ccccc2)[nH]1` (stereo not drawn) [Example 2, 4,5-Diphenyl-2-(2,2,2-trifluoroethylsulfinyl)imidazole], the ED50 in test [2] (setting [3]) is 48 mg/kg.

Regarding `COc1ccc(-c2nc(S(=O)(=O)C(F)(F)C(F)F)[nH]c2-c2ccc(OC)cc2)cc1` [Example 64, 4,5-bis(4-methoxyphenyl)-2-(1,1,2,2-tetrafluoroethylsulfonyl)imidazole], the ED50 was 0.11 mg/kg in test [1] and 1.1 mg/kg in test [2] (setting [3]). In test [1], this molecule showed a peak time of 120 min.

For `COc1ccc(-c2nc(SCC(F)(F)F)[nH]c2-c2ccc(OC)cc2)cc1` [Example 4, 4,5-bis-(4-Methoxyphenyl)-2-(2,2,2-trifluoroethylthio)imidazole], in test [1], the median effective dose (ED50) was determined as 1.2 mg/kg and the peak time is given as 240 min. The ED50 in test [2] (setting [3]) came out at 20 mg/kg.

With `O=S(=O)(c1nc(-c2ccc(Cl)cc2)c(-c2ccc(Cl)cc2)[nH]1)C(F)(F)C(F)F` [Example 69, 4,5-bis(4-chlorophenyl)-2-(1,1,2,2-tetrafluoroethylsulfonyl)imidazole], the ED50 in test [2] (setting [3]) is 0.2 mg/kg.

Regarding `FC(F)C(F)(F)Sc1nc(-c2ccc(C(F)(F)F)cc2)c(-c2ccccc2)[nH]1` [Example 47], the ED50 in test [2] (setting [3]) is 4.5 mg/kg.

Consider `O=S(=O)(c1nc(-c2ccccc2)c(-c2ccccc2)[nH]1)C(F)F` [Example 75], for which the ED50 in test [2] (setting [3]) came to 0.35 mg/kg.

On to `COc1ccc(-c2nc(S(C)(=O)=O)[nH]c2-c2ccc(OC)cc2)cc1` [Example 57], for which the ED50 in test [2] (setting [3]) was 6.4 mg/kg.

Take `CS(=O)(=O)c1nc(-c2ccc(F)cc2)c(-c2ccc(F)cc2)[nH]1` [Example 72]: the ED50 in test [2] (setting [3]) worked out at 4.5 mg/kg.

`CSc1nc(-c2ccc(F)cc2)c(-c2ccc(F)cc2)[nH]1` [Example 28]: the ED50 in test [2] (setting [3]) is 3.5 mg/kg.

For the molecule `FC(F)Sc1nc(-c2ccc(Cl)cc2)c(-c2ccc(Cl)cc2)[nH]1` [Example 31], in test [2] (setting [3]), the ED50 amounted to 0.35 mg/kg.

Take `C[S+]([O-])c1nc(-c2ccccc2)c(-c2cccc(Cl)c2)[nH]1` (stereo not drawn) [Example 139]: the “percent (%) reduction in paw volume” value in test [2] (75 mg./kg., oral) was determined as 77%.

Turning to `COc1ccc(-c2[nH]c(SC(F)(F)C(F)F)nc2-c2ccc(F)cc2)cc1` [Example 117], the ED50 in test [2] (setting [3]) turned out to be 14 mg/kg.

As to `CSc1nc(-c2ccc(Cl)cc2)c(-c2ccc(C(F)(F)F)cc2)[nH]1` [Example 36], the ED50 in test [2] (setting [3]) was 3.6 mg/kg.

`CS(=O)(=O)c1nc(-c2ccc(Cl)cc2)c(-c2ccccc2)[nH]1` [Example 85]: the ED50 in test [2] (setting [3]) was determined as 30 mg/kg.

Take `O=S(=O)(CC(F)(F)F)c1nc(-c2ccccc2)c(-c2ccccc2)[nH]1` [Example 3, 4,5-Diphenyl-2-(2,2,2-trifluoroethylsulfonyl)imidazole]: in test [2] (setting [3]), the median effective dose (ED50) turned out to be 12 mg/kg.

On to `COc1ccc(-c2nc([S+]([O-])CC(C)=O)[nH]c2-c2ccc(OC)cc2)cc1` (stereo not drawn) [Example 98], for which the ED50 in test [2] (setting [3]) came out at 56 mg/kg.

On to `COc1ccc(-c2nc(S(=O)(=O)C(F)(F)C(F)I)[nH]c2-c2ccc(OC)cc2)cc1` (stereo not drawn) [Example 128], for which, in test [2] (setting [3]), the ED50 was 3 mg/kg.

`CSc1nc(-c2ccc(C(F)(F)F)cc2)c(-c2ccccc2)[nH]1` [Example 34]: the ED50 in test [2] (setting [3]) is 20 mg/kg.

As for `[O-][S+](c1nc(-c2ccc(Cl)cc2)c(-c2ccc(Cl)cc2)[nH]1)C(F)F` (stereo not drawn) [Example 94], the ED50 in test [2] (setting [3]) is 0.19 mg/kg.

Regarding `O=S(=O)(CC(F)(F)F)c1nc(-c2ccc(Cl)cc2)c(-c2ccc(Cl)cc2)[nH]1` [Example 9, 4,5-bis(4-Chlorophenyl)-2-(2,2,2-trifluoroethylsulfonyl)imidazole], the ED50 in test [2] (setting [3]) is 4.5 mg/kg.

`Fc1cccc(-c2[nH]c(SC(F)(F)C(F)F)nc2-c2ccccc2)c1` [Example 120]: the “percent (%) reduction in paw volume” value in test [2] (1.0 mg./kg., oral) worked out at 37%.

Turning to `C=CCS(=O)(=O)c1nc(-c2ccc(OC)cc2)c(-c2ccc(OC)cc2)[nH]1` [Example 55], the ED50 in test [2] (setting [3]) turned out to be 11 mg/kg.

On to `FC(F)C(F)(F)Sc1nc(-c2ccc3c(c2)OCO3)c(-c2ccc3c(c2)OCO3)[nH]1` [Example 46], for which the ED50 in test [2] (setting [3]) was 10 mg/kg.

Consider `O=S(=O)(c1nc(-c2ccc(Cl)cc2)c(-c2ccc(C(F)(F)F)cc2)[nH]1)C(F)(F)C(F)F` [Example 90], for which the ED50 in test [2] (setting [3]) came to 1.8 mg/kg.

For the molecule `CSc1nc(-c2ccccc2)c(-c2ccc(Cl)c(Cl)c2)[nH]1` [Example 112], in test [2] (25 mg./kg., oral), the “percent (%) reduction in paw volume” value came out at 62%.

Regarding `CN(C)c1ccc(-c2nc(SC(F)(F)C(F)F)[nH]c2-c2ccccc2)cc1` [Example 53], the ED50 in test [2] (setting [3]) is 2.5 mg/kg. In addition, the “Adjuvant Arthritis (ED50%)” value in test [2] (established arthritis, oral, 7 daily doses, ED50% decrease from control paw volume, Tables I-III, listed as 122) amounted to 4.0 mg/kg.

Regarding `Fc1ccc(-c2nc(SC(F)(F)C(F)F)[nH]c2-c2ccccc2)cc1` [Example 49], in test [2] (setting [3]), the ED50 is 0.2 mg/kg.

Consider `O=S(=O)(c1nc(-c2ccccc2)c(-c2cccc(F)c2)[nH]1)C(F)(F)C(F)F` [Example 143], for which the ED50 in test [2] (setting [3]) was 0.06 mg/kg.

For `O=S(=O)(c1nc(-c2ccccc2)c(-c2ccc(Cl)c(Cl)c2)[nH]1)C(F)(F)C(F)F` [Example 137, 4(or 5)-(3,4-dichlorophenyl)-5(or 4)-phenyl-2-(1,1,2,2-tetrafluoroethylsulfonyl)imidazole], the ED50 in test [2] (setting [3]) came out at 0.25 mg/kg.

Take `C[S+]([O-])c1nc(-c2ccc(Cl)cc2)c(-c2ccc(Cl)cc2)[nH]1` (stereo not drawn) [Example 59]: the ED50 in test [2] (setting [3]) was 2.3 mg/kg.

Turning to `O=S(=O)(c1nc(-c2ccc(Cl)cc2)c(-c2ccc(Cl)cc2)[nH]1)C(F)F` [Example 77], the ED50 in test [2] (setting [3]) came out at 0.35 mg/kg.
